Our source for the ring closure, yield of all isomers, ring closure, isolated yield and IC50 values is patent publication US11566007B2, “Ras inhibitors” (Revolution Medicines, Inc., priority 2019, dated 2023).

For data set [1] the following is noted: 18-membered ring.
The test system of data set [2] is NCI-H358 (K-Ras G12C). Put plainly: CellTiter-Glo cell viability assay, NCI-H358. In kind it is cell-based, human. To be noted: Homo sapiens, NCI-H358, 120 h, NCI-H358, 5-day treatment; class symbols; read-out: Additional H358 Cell Viability assay data (K-Ras G12C, IC50). The gist of the method:
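Steps: compound dispensed into wells holding cells; incubation to day 5; ~30 min room-temperature equilibration; luminescence read; sample signal divided by mean DMSO signal, times 100; four-parameter logistic curve fit.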

Data set [3] deals with K-Ras G12C (Homo sapiens (Human), UniProt P01116+P62937, G12C). Description: Ras-Raf (BRAF RBD) disruption / FRET / MOA assay, KRAS G12C. In kind it is biochemical. Conditions: KRAS G12C; Ras-Raf disruption/FRET/MOA assay; read-out: IC50* KRAS G12C FRET data. The gist of the method:
(§1)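 TR-FRET read-out: a drop in ratio relative to DMSO wells marks disruption of the Ras:RAF complex, reported as IC50. Compounds (3-fold series, 10 points, top 30 μM final) incubated 3 h at 25° C before Eu-anti-His 10 nM and APC-anti-GST 50 nM, 1.5 h more.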

For data set [4], the target named is K-Ras G13C (Homo sapiens (Human), UniProt P01116+P62937, G13C). Put plainly: Ras-Raf (BRAF RBD) disruption / FRET / MOA assay, KRAS G13C. To be noted: KRAS G13C; Ras-Raf disruption/FRET/MOA assay; read-out: IC50* KRAS G13C FRET data. It is filed as biochemical. The gist of the method: as §1
The target in data set [5] is KRAS G12S (Homo sapiens (Human), UniProt P01116+P62937, G12S). Put plainly: Ras-Raf (BRAF RBD) disruption / FRET / MOA assay, KRAS G12S. To be noted: Ras-Raf disruption/FRET/MOA assay; class symbols; read-out: KRAS G12S FRET data IC50. In kind it is biochemical. The method, boiled down:
as §1

In data set [6] the target is KRAS G12D (Homo sapiens (Human), UniProt P01116+P62937, G12D). Description: Ras-Raf (BRAF RBD) disruption / FRET / MOA assay, KRAS G12D. Conditions: Ras-Raf disruption/FRET/MOA assay; class symbols; read-out: KRAS G12D FRET data IC50. In kind it is biochemical. The gist of the method:
as §1

Data set [7] has as its target KRAS G12V (Homo sapiens (Human), UniProt P01116+P62937, G12V). Put plainly: Ras-Raf (BRAF RBD) disruption / FRET / MOA assay, KRAS G12V. In kind it is biochemical. To be noted: read-out: IC50* KRAS G12V FRET data. The method, boiled down: as §1
Data set [8] concerns the target KRAS WT (Homo sapiens (Human), UniProt P01116+P62937). Put plainly: Ras-Raf (BRAF RBD) disruption / FRET / MOA assay, KRAS WT. It is filed as biochemical. To be noted: read-out: IC50* KRAS WT FRET data. The method, boiled down: as §1
The target in data set [9] is KRAS G13D (Homo sapiens (Human), UniProt P01116+P62937, G13D). Description: Ras-Raf (BRAF RBD) disruption / FRET / MOA assay, KRAS G13D. In kind it is biochemical. Conditions: read-out: IC50* KRAS G13D FRET data. The gist of the method: as §1
Data set [10] has as its target KRAS Q61H (Homo sapiens (Human), UniProt P01116+P62937, Q61H). Description: Ras-Raf (BRAF RBD) disruption / FRET / MOA assay, KRAS Q61H. It is filed as biochemical. To be noted: Ras-Raf disruption/FRET/MOA assay; class symbols; read-out: KRAS Q61H FRET data IC50. The gist of the method:
(§2)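 Compounds were tested as a 10-point 3-fold dilution series from 30 μM final for their ability to drive ternary complex formation between nucleotide-loaded Ras and cyclophilin A, displacing the BRAF RBD. After 3 h at 25° C., anti-His Eu-W1024 (10 nM) and anti-GST allophycocyanin (50 nM) were added for 1.5 h. A TR-FRET ratio decrease versus DMSO gave IC50.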

The target in data set [11] is NRAS G12C (Homo sapiens (Human), UniProt P01111+P62937, G12C). Put plainly: Ras-Raf (BRAF RBD) disruption / FRET / MOA assay, NRAS G12C. Conditions: read-out: IC50* NRAS G12C FRET data. It is filed as biochemical. The gist of the method:
as §1

In data set [12] the target is NRAS Q61R (Homo sapiens (Human), UniProt P01111+P62937, Q61R). Description: Ras-Raf (BRAF RBD) disruption / FRET / MOA assay, NRAS Q61R. In kind it is biochemical. Conditions: NRAS Q61R; Ras-Raf disruption/FRET/MOA assay; read-out: IC50* NRAS Q61R FRET data. The gist of the method: as §2
The target in data set [13] is NRAS Q61K (Homo sapiens (Human), UniProt P01111+P62937, Q61K). Description: Ras-Raf (BRAF RBD) disruption / FRET / MOA assay, NRAS Q61K. It is filed as biochemical. Conditions: NRAS Q61K; Ras-Raf disruption/FRET/MOA assay; read-out: IC50* NRAS Q61K FRET data. The gist of the method: as §2
The target of data set [14] is NRAS WT (Homo sapiens (Human), UniProt P01111+P62937). Put plainly: Ras-Raf (BRAF RBD) disruption / FRET / MOA assay, NRAS WT. Conditions: read-out: IC50* NRAS WT FRET data. It is filed as biochemical. The gist of the method: as §2

Like-named read-outs stand apart in the source and are kept apart here.

Sequence of KRAS Q61H (P01116-2 other isoform, or with tags, fused parts or gaps Q61H): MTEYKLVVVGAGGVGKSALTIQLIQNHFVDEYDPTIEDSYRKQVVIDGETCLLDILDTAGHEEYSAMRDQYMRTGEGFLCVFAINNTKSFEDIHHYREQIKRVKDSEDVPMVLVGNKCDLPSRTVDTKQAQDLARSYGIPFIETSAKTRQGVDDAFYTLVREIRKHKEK
Sequence of KRAS Q61H (P62937 whole entry): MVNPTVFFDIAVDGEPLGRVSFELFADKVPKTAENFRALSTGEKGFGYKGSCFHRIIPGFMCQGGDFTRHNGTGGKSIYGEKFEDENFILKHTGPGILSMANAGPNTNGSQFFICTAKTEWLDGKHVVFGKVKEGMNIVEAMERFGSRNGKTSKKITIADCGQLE
Sequence of NRAS G12C (P01111 whole entry G12C): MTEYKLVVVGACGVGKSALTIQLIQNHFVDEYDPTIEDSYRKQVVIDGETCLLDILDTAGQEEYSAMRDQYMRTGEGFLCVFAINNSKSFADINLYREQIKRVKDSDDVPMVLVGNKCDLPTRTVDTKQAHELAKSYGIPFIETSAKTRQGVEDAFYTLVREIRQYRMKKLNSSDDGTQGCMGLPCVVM
Sequence of NRAS G12C (P62937 whole entry): as the sequence (P62937 whole entry) above
Sequence of KRAS WT (P01116-2 other isoform, or with tags, fused parts or gaps): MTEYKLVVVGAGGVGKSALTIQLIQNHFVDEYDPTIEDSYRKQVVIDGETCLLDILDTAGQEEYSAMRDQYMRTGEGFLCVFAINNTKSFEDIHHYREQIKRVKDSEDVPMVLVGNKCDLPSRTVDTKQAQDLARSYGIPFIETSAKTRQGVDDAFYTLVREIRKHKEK
Sequence of KRAS WT (P62937 whole entry): as the sequence (P62937 whole entry) above
Sequence of KRAS G12S (P01116-2 other isoform, or with tags, fused parts or gaps G12S): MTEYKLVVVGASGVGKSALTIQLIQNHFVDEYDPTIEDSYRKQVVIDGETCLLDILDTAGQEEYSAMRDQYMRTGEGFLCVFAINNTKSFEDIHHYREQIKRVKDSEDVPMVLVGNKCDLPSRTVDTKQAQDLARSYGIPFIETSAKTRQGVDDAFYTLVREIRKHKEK
Sequence of KRAS G12S (P62937 whole entry): as the sequence (P62937 whole entry) above
Sequence of NRAS Q61K (P01111 whole entry Q61K): as the sequence (P01111 whole entry G12C) above, with C12G, Q61K counted along it
Sequence of NRAS Q61K (P62937 whole entry): as the sequence (P62937 whole entry) above
Sequence of KRAS G13D (P01116-2 other isoform, or with tags, fused parts or gaps G13D): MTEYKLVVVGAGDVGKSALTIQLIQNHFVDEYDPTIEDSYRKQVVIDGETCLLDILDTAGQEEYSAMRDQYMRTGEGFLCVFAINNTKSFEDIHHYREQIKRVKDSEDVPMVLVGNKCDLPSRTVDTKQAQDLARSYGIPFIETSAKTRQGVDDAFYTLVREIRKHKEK
Sequence of KRAS G13D (P62937 whole entry): as the sequence (P62937 whole entry) above
Sequence of KRAS G12D (P01116-2 other isoform, or with tags, fused parts or gaps G12D): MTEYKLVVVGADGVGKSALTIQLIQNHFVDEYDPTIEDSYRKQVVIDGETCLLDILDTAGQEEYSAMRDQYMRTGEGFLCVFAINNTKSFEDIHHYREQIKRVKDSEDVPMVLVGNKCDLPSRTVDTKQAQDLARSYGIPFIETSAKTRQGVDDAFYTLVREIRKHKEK
Sequence of KRAS G12D (P62937 whole entry): as the sequence (P62937 whole entry) above
Sequence of KRAS G12V (P01116-2 other isoform, or with tags, fused parts or gaps G12V): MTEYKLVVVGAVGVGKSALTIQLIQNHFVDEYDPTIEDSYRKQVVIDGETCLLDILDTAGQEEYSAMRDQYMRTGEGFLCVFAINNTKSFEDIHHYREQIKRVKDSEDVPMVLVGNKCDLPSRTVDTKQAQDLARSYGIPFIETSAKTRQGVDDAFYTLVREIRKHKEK
Sequence of KRAS G12V (P62937 whole entry): as the sequence (P62937 whole entry) above
Sequence of K-Ras G13C (P01116-2 other isoform, or with tags, fused parts or gaps G13C): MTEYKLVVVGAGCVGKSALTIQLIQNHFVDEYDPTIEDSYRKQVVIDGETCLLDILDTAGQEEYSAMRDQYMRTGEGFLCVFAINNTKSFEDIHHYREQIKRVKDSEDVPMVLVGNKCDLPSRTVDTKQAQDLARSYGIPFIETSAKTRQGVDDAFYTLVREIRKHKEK
Sequence of K-Ras G13C (P62937 whole entry): as the sequence (P62937 whole entry) above
Sequence of NRAS WT (P01111 whole entry): as the sequence (P01111 whole entry G12C) above, with C12G counted along it
Sequence of NRAS WT (P62937 whole entry): as the sequence (P62937 whole entry) above
Sequence of K-Ras G12C (P01116-2 other isoform, or with tags, fused parts or gaps G12C): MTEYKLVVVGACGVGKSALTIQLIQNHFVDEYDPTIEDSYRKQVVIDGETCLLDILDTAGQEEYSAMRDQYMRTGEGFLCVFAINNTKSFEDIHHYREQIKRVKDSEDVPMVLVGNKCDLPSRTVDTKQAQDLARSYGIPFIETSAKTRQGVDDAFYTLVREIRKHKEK
Sequence of K-Ras G12C (P62937 whole entry): as the sequence (P62937 whole entry) above
Sequence of NRAS Q61R (P01111 whole entry Q61R): as the sequence (P01111 whole entry G12C) above, with C12G, Q61R counted along it
Sequence of NRAS Q61R (P62937 whole entry): as the sequence (P62937 whole entry) above

For `CCn1c(-c2cccnc2[C@H](C)OC)c2c3cc(ccc31)-c1nc(co1)C[C@H](NC(=O)OC(C)(C)C)C(=O)N1CCC[C@H](N1)C(=O)OCC(C)(C)C2`, the ring closure, yield of all isomers (from CCn1c(-c2cccnc2[C@H](C)OC)c(CC(C)(C)COC(=O)[C@@H]2CCCN(C(=O)[C@H](Cc3coc(Br)n3)NC(=O)OC(C)(C)C)N2)c2cc(B3OC(C)(C)C(C)(C)O3)ccc21, cc_pd bond, XPhos Pd G3/XPhos/K3PO4, dioxane, […], 70.0 °C, 4.0 h) was 56%.
For the compound `CCn1c(-c2cccnc2[C@H](C)OC)c2c3cc(ccc31)C1=CCCN(C1)CC(NC(=O)OC(C)(C)C)C(=O)N1CCC[C@H](N1)C(=O)OCC(C)(C)C2` (stereo partly shown), the ring closure, yield of all isomers (from CCn1c(-c2cccnc2[C@H](C)OC)c(CC(C)(C)CO)c2cc(C3=CCCN(CC(NC(=O)OC(C)(C)C)C(=O)N4CCC[C@@H](C(=O)O)N4)C3)ccc21, ester bond, EDCI.HCl/HOBt/DIPEA, DCM, 7.14 mM, 30.0 °C, 16.0 h) worked out at 40%.
Consider `CCn1c(-c2cccnc2[C@H](C)OC)c2c3cc(ccc31)N1CCO[C@@H](C[C@H](NC(=O)OCc3ccccc3)C(=O)N3CCC[C@H](N3)C(=O)OCC(C)(C)C2)C1`, for which, in data set [1] (from CCn1c(-c2cccnc2[C@H](C)OC)c(CC(C)(C)CO)c2cc(N3CCO[C@@H](C[C@H](NC(=O)OCc4ccccc4)C(=O)N4CCC[C@@H](C(=O)O)N4)C3)ccc21, ester bond, EDCI/HOBt/DIPEA, DCM, 12.75 mM, 25.0 °C), the ring closure, isolated yield turned out to be 66%.
`CO[C@@H](C)c1ncc(N2CCN(C(=O)OCc3ccccc3)CC2)cc1-c1c2c3cc(ccc3n1CC(F)(F)F)-c1cccc(c1)C[C@H](NC(=O)OC(C)(C)C)C(=O)N1CCC[C@H](N1)C(=O)OCC(C)(C)C2`: in data set [1] (from CO[C@@H](C)c1ncc(N2CCN(C(=O)OCc3ccccc3)CC2)cc1-c1c(CC(C)(C)CO)c2cc(-c3cccc(C[C@H](NC(=O)OC(C)(C)C)C(=O)N4CCC[C@@H](C(=O)O)N4)c3)ccc2n1CC(F)(F)F, ester bond, EDCI/HOBt/DIPEA, DCM, 9.9 mM), the ring closure, isolated yield is 67.9%.
`CO[C@@H](C)c1ncccc1-c1c2c3cc(ccc3n1CC(F)(F)F)N1CCO[C@@H](C[C@H](NC(=O)OCc3ccccc3)C(=O)N3CCC[C@H](N3)C(=O)OCC(C)(C)C2)C1`: the ring closure, isolated yield in [1] (from CO[C@@H](C)c1ncccc1-c1c(CC(C)(C)CO)c2cc(N3CCO[C@@H](C[C@H](NC(=O)OCc4ccccc4)C(=O)N4CCC[C@@H](C(=O)O)N4)C3)ccc2n1CC(F)(F)F, ester bond, EDCI/HOBt/DIPEA, DCM, 11.25 mM) is 74%.
Regarding `C=CC(=O)N1CC[C@H](C(=O)N(C)[C@H](C(=O)N[C@H]2Cc3cc(O)cc(c3)-c3ccc4nc(-c5cccnc5[C@H](C)OC)n(c4c3)CC(C)(C)COC(=O)[C@@H]3CCCN(N3)C2=O)C(C)C)C1` [Example A242], the IC50 in data set [2] is greater than 1 µM; in data set [3], 1 to 10 µM; in [4], 1 to 10 µM; in [5], greater than 10 µM; in data set [6], greater than 10 µM; in [7], 1 to 10 µM. The half-inhibitory concentration (IC50) is greater than 10 µM in data set [8]; greater than 10 µM in [9]; 1 to 10 µM in data set [10]; 1 to 10 µM in data set [11]; greater than 10 µM in [12]; greater than 10 µM in data set [13]. Moreover, in data set [14], the IC50 was greater than 10 µM.
For `C=CC(=O)N1CC[C@H](C(=O)N(C)[C@H](C(=O)N[C@H]2Cc3cc(O)cc(c3)-c3ccc4nc(-c5cccnc5COC)c(n4c3)CC(C)(C)COC(=O)[C@@H]3CCCN(N3)C2=O)C(C)C)C1` [Example A243], the IC50 in data set [2] was greater than 1 µM; in data set [3], greater than 10 µM; in data set [4], greater than 10 µM; in data set [5], greater than 10 µM; in data set [6] it was greater than 10 µM; in data set [7], greater than 10 µM. The half-maximal inhibitory concentration (IC50) in data set [8], in data set [9], in [10], in [11], in data set [12] and in [13] was greater than 10 µM in each case. Also, the IC50 in data set [14] was greater than 10 µM.
Regarding `C=CC(=O)N1CC[C@H](C(=O)N(C)[C@H](C(=O)NC2C[C@@H]3CN(CCO3)c3ccc4c(c3)c(c(-c3cccnc3[C@H](C)OC)n4CC)CC(C)(C)COC(=O)[C@@H]3CC(Br)CN(N3)C2=O)C(C)C)C1` (stereo partly shown) [Example A313], the IC50 was greater than 1 µM in data set [2]; 1 to 10 µM in [3]; greater than 10 µM in [4]; greater than 10 µM in data set [5]; greater than 10 µM in [6]; greater than 10 µM in data set [7]. For the same compound, the IC50 was greater than 10 µM in [8]; greater than 10 µM in data set [9]; greater than 10 µM in data set [10]; 1 to 10 µM in [11]; greater than 10 µM in data set [12]; greater than 10 µM in data set [13]. Also, the concentration for half-maximal inhibition (IC50) in data set [14] is greater than 10 µM.
For the compound `C=CC(=O)N1CC[C@H](C(=O)N(C)[C@H](C(=O)N[C@H]2Cc3cccc(c3)-c3ccc4c(c3)c(c(-c3cnn(C5CCN(C)CC5)c3[C@H](C)OC)n4CC)CC(C)(C)COC(=O)[C@@H]3CCCN(N3)C2=O)C(C)C)C1` [Example A482], the IC50 in [2] is 0.1 to 1 µM; in data set [3] it was greater than 10 µM; in data set [4] it was greater than 10 µM; in [5], greater than 10 µM; in data set [6] it was greater than 10 µM; in data set [7], greater than 10 µM. The IC50 in [8], in [9], in data set [10], in data set [11], in data set [12] and in data set [13] was greater than 10 µM each time. In data set [14], the IC50 was greater than 10 µM.
On to “tert-butyl ((6^3S,4S)-1^1-ethyl-1^2-(2-((S)-1-methoxyethyl)pyridin-3-yl)-10,10-dimethyl-5,7-dioxo-6^1,6^2,6^3,6^4,6^5,6^6-hexahydro-1^1H-8-oxa-2(5,2)-oxazola-1(5,3)-indola-6(1,3)-pyridazinacycloundecaphane-4-yl)carbamate”, for which, in [1] (ester bond, EDCI/HOBt/DIPEA, DCM, 13.7 mM, 0.0 °C), the ring closure, isolated yield was 56.4%.
In turn, “tert-butyl ((6^3S,4S)-1^1-ethyl-1^2-(2-(methoxymethyl)phenyl)-10,10-dimethyl-2^5-nitro-5,7-dioxo-6^1,6^2,6^3,6^4,6^5,6^6-hexahydro-1^1H-8-oxa-1(5,3)-indola-6(1,3)-pyridazina-2(1,3)-benzenacycloundecaphane-4-yl)carbamate” displayed a ring closure, isolated yield in data set [1] (ester bond, EDCI/HOBt/DIPEA, DCM, 6.4 mM) of 73%.
In the case of “tert-butyl ((6^3S,4S)-2^5-(difluoromethyl)-1^1-ethyl-1^2-(2-((S)-1-methoxyethyl)pyridin-3-yl)-10,10-dimethyl-5,7-dioxo-6^1,6^2,6^3,6^4,6^5,6^6-hexahydro-1^1H-8-oxa-1(5,3)-indola-6(1,3)-pyridazina-2(1,3)-benzenacycloundecaphane-4-yl)carbamate”, in data set [1] (ester bond, EDCI/HOBt/DIPEA, DCM), the ring closure, isolated yield was determined as 51%.
Regarding “tert-butyl ((6^3S,4S,Z)-1^1-ethyl-1^2-(2-((S)-1-methoxyethyl)pyridin-3-yl)-2^1,10,10-trimethyl-5,7-d ioxo-6^1,6^2,6^3,6^4,6^5,6^6-hexahydro-1^1H,2^1H-8-oxa-1(5,3)-indola-6(1,3)-pyridazina-2(5,3)-triazolacycloundecaphane-4-yl)carbamate”, the ring closure, isolated yield in [1] (cc_pd bond, XPhos Pd G3/XPhos/K3PO4, dioxane/H2O 5:1, 71.7 mM, 75.0 °C) worked out at 56.8%.
